According to the supplement of paper PMC10307832:

Assays:
Test in all cases: relative viability (nuclei count vs DMSO), 5 days (fraction); higher = more cells survive
Nelarabine + Phenformin = compound: COc1nc(N)nc2c1ncn2[C@@H]1O[C@H](CO)[C@@H](O)[C@@H]1O [Nelarabine] + N=C(N)NC(=N)NCCc1ccccc1 [Phenformin] (partner 250 µM)
In short: (§1)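 Nuclei were stained with Hoechst during a one-step fixation (final 0.05% Triton X-100, 1% formaldehyde, 1 ug/ml Hoechst) carried out 5 days after dosing, then counted on 4× images. The cells, lung cancer lines in 1536-well plates, had been dosed by pin tool the day after seeding with one drug alone or a fixed anchor-drug dose plus five library-drug doses (not always all listed) in √10 steps. Relative viability is the nuclei count in treated wells divided by that in vehicle wells, and each value is the median of duplicate plates.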

Adavosertib + Pictilisib = compound: C=CCn1c(=O)c2cnc(Nc3ccc(N4CCN(C)CC4)cc3)nc2n1-c1cccc(C(C)(C)O)n1 [Adavosertib] + CS(=O)(=O)N1CCN(Cc2cc3nc(-c4cccc5[nH]ncc45)nc(N4CCOCC4)c3s2)CC1 [Pictilisib] (partner 1 µM)
In short: as §1

Adavosertib + AZD7762 = compound: C=CCn1c(=O)c2cnc(Nc3ccc(N4CCN(C)CC4)cc3)nc2n1-c1cccc(C(C)(C)O)n1 [Adavosertib] + NC(=O)Nc1cc(-c2cccc(F)c2)sc1C(=O)N[C@H]1CCCNC1 [AZD7762] (partner 0.2 µM)
In short: as §1

Adavosertib + Trametinib = compound: C=CCn1c(=O)c2cnc(Nc3ccc(N4CCN(C)CC4)cc3)nc2n1-c1cccc(C(C)(C)O)n1 [Adavosertib] + CC(=O)Nc1cccc(-n2c(=O)n(C3CC3)c(=O)c3c(Nc4ccc(I)cc4F)n(C)c(=O)c(C)c32)c1 [Trametinib] (partner 0.02 µM)
In short: as §1

| Cell Line | relative viability (Nelarabine + Phenformin; first compound 0.01 µM) | relative viability (Nelarabine + Phenformin; first compound 0.03162 µM) | relative viability (Nelarabine + Phenformin; first compound 0.1 µM) | relative viability (Nelarabine + Phenformin; first compound 0.3162 µM) | relative viability (Nelarabine + Phenformin; first compound 1 µM) | relative viability (Adavosertib + Pictilisib; first compound 0.01 µM) | relative viability (Adavosertib + Pictilisib; first compound 0.03162 µM) | relative viability (Adavosertib + Pictilisib; first compound 0.1 µM) | relative viability (Adavosertib + Pictilisib; first compound 0.3162 µM) | relative viability (Adavosertib + AZD7762; first compound 0.01 µM) | relative viability (Adavosertib + AZD7762; first compound 0.03162 µM) | relative viability (Adavosertib + AZD7762; first compound 0.1 µM) | relative viability (Adavosertib + AZD7762; first compound 0.3162 µM) | relative viability (Adavosertib + Trametinib; first compound 0.01 µM) | relative viability (Adavosertib + Trametinib; first compound 0.03162 µM) | relative viability (Adavosertib + Trametinib; first compound 0.1 µM) | relative viability (Adavosertib + Trametinib; first compound 0.3162 µM) |
| --- | --- | --- | --- | --- | --- | --- | --- | --- | --- | --- | --- | --- | --- | --- | --- | --- | --- |
| NCI-H1915 | 0.378 | 0.315 | 0.367 | 0.371 | 0.367 | 0.97 | 1 | 1.05 | 0.985 | 0.724 | 0.657 | 0.566 | 0.238 | 0.329 | 0.338 | 0.322 | 0.33 |
| ABC-1 | 0.216 | 0.212 | 0.258 | 0.231 | 0.229 | 0.586 | 0.695 | 0.528 | 0.627 | 0.87 | 0.706 | 0.623 | 0.802 |  |  |  |  |
| NCI-H358 | 0.441 | 0.308 | 0.305 | 0.356 | 0.377 | 0.356 | 0.312 | 0.353 | 0.285 | 0.486 | 0.488 | 0.329 | 0.234 | 0.132 | 0.124 | 0.124 | 0.124 |
| HCC-366 | 0.644 | 0.602 | 0.663 | 0.585 | 0.589 | 0.155 | 0.143 | 0.217 | 0.172 | 0.292 | 0.21 | 0.184 | 0.0419 | 0.387 | 0.353 | 0.352 | 0.344 |
| EBC-1 |  |  |  |  |  | 0.387 | 0.429 | 0.382 | 0.286 |  |  |  |  |  |  |  |  |
| NCI-H1650 | 0.39 | 0.427 | 0.379 | 0.436 | 0.445 | 0.652 | 0.579 | 0.506 | 0.3 |  |  |  |  | 0.587 | 0.616 | 0.539 | 0.574 |
| NCI-H1395 | 0.487 | 0.401 | 0.474 | 0.455 | 0.423 | 0.545 | 0.546 | 0.596 | 0.635 | 0.377 | 0.354 | 0.345 | 0.316 | 1.06 | 1.12 | 1.08 | 0.864 |
| SW 900 | 0.592 | 0.583 | 0.546 | 0.784 | 0.635 |  |  |  |  | 0.559 | 0.422 | 0.281 | 0.175 | 0.682 | 0.892 | 0.957 | 0.696 |
| NCI-H1666 | 0.576 | 0.607 | 0.569 | 0.536 | 0.606 | 0.5 | 0.324 | 0.309 | 0.403 | 0.766 | 0.829 | 0.803 | 0.625 | 0.797 | 0.782 | 1.02 | 0.813 |
| COR-L23 | 0.525 | 0.385 | 0.356 | 0.416 | 0.448 | 0.665 | 0.636 | 0.722 | 0.266 |  |  |  |  | 0.622 | 0.577 | 0.565 | 0.251 |
| ChaGo-K-1 | 0.549 | 0.426 | 0.458 | 0.529 | 0.48 | 0.579 | 0.678 | 0.663 | 0.631 | 0.918 | 0.836 | 0.732 | 0.29 | 0.884 | 0.844 | 0.901 | 0.883 |
| SW 1573 | 0.548 | 0.422 | 0.406 | 0.356 | 0.389 | 0.482 | 0.525 | 0.58 | 0.343 |  |  |  |  | 0.525 | 0.564 | 0.605 | 0.638 |
| NCI-H23 | 0.778 | 0.766 | 0.684 | 0.847 | 0.79 | 0.504 | 0.51 | 0.49 | 0.236 | 0.227 | 0.143 | 0.118 | 0.142 | 0.363 | 0.395 | 0.339 | 0.226 |
| NCI-H1299 |  |  |  |  |  | 0.982 | 0.66 | 0.541 | 0.123 |  |  |  |  |  |  |  |  |
| NCI-H1944 | 0.209 | 0.195 | 0.229 | 0.195 | 0.203 | 0.387 | 0.333 | 0.333 | 0.326 | 0.511 | 0.31 | 0.23 | 0.164 | 0.376 | 0.377 | 0.378 | 0.372 |
| PC-3 [JPC-3] | 0.475 | 0.437 | 0.473 | 0.472 | 0.459 | 0.719 | 0.775 | 0.725 | 0.865 |  | 0.757 | 0.777 | 0.709 |  | 0.667 | 0.761 | 0.746 |
| NCI-H2126 | 0.593 | 0.545 | 0.51 | 0.508 | 0.517 | 0.531 | 0.526 | 0.506 | 0.521 | 0.962 | 1.03 | 0.949 | 0.788 | 0.571 | 0.528 | 0.619 | 0.619 |
| HCC-827 | 0.373 | 0.378 | 0.308 | 0.352 | 0.443 | 0.985 | 1.05 | 1.08 | 0.937 | 0.196 | 0.166 | 0.179 | 0.15 | 0.533 | 0.567 | 0.492 | 0.522 |
| H3255 |  | 0.361 | 0.341 | 0.321 | 0.337 | 0.502 | 0.452 | 0.447 | 0.402 | 0.824 | 0.854 | 0.721 | 0.559 | 0.576 | 0.591 | 0.616 | 0.634 |
| NCI-H838 | 0.701 | 0.549 | 0.608 | 0.595 | 0.628 | 0.446 | 0.411 | 0.449 | 0.485 | 0.986 | 0.831 | 0.722 | 0.626 | 0.488 | 0.531 | 0.503 | 0.582 |
| NCI-H1734 | 0.446 | 0.388 | 0.412 | 0.366 | 0.38 | 0.41 | 0.434 | 0.478 | 0.31 | 0.379 | 0.315 | 0.202 | 0.168 | 0.64 | 0.726 | 0.711 | 0.711 |
